In US20250034097A1, “MICROBIOCIDAL ISONICOTINIC AMIDE DERIVATIVES” (SYNGENTA CROP PROTECTION AG, priority 2021, published 2025):

Experiments:
[1] = system: Glomerella lagenarium; experiment: Glomerella lagenarium syn Colletotrichum lagenarium (anthracnose), growth inhibition in nutrient broth; assay type: cell-based; conditions: Colletotrichum orbiculare, PDB broth, 24° C., 72 hours, photometric at 620 nm, compared to untreated control
Experimental: (§1) Conidia of the fungus from cryogenic storage were directly mixed into nutrient broth (PDB potato dextrose broth). A DMSO solution of the test compounds was placed into a microtiter plate (96-well format) and the nutrient broth containing the fungal spores was added to it. The test plates were incubated at 24° C. and the inhibition of growth was determined photometrically after 72 hours at 620 nm.

[2] = system: Monographella nivalis; experiment: Monographella nivalis syn. Microdochium nivale (snow mould, foot rot), growth inhibition in nutrient broth; assay type: cell-based; conditions: "at ppm" (concentration not given); PDB broth, 24° C., 72 hours, photometric at 620 nm; compared to untreated control
Experimental: as §1

[3] = system: Sclerotinia sclerotiorum; experiment: Sclerotinia sclerotiorum (cottony rot, white mold), growth inhibition in nutrient broth; assay type: cell-based; conditions: 20 ppm; PDB broth, 24° C., 72 hours, photometric at 620 nm; compared to untreated control
Experimental: as §1, with “Mycelial fragments” for “Conidia”, “fungus prepared” for “fungus”, “a fresh liquid culture” for “cryogenic storage”

[4] = system: Pyrenophora teres; experiment: Pyrenophora teres (net blotch of barley), barley leaf segments, preventive; assay type: in vivo; conditions: 200 ppm, assessed 4 dpi, compared to untreated control
Experimental: Barley leaf segments are placed on agar in multiwell plates (24-well format) and sprayed with test solutions. After drying, the leaf disks are inoculated with a spore suspension of the fungus. After appropriate incubation, the activity of a compound is assessed 4 dpi (days after inoculation) as preventive fungicidal activity.

[5] = system: Alternaria solani; experiment: Alternaria solani (early blight of tomato), tomato leaf disks, preventive; assay type: in vivo; conditions: 200 ppm, assessed 4 dpi, compared to untreated control
Experimental: Alternaria solani (Early Blight of Tomato) Tomato leaf disks are placed on water agar in multiwell plates (24-well format) and sprayed with test solutions. After drying, the leaf disks are inoculated with a spore suspension of the fungus. After appropriate incubation the activity of a compound is assessed 4 dpi (days post inoculation) as preventive fungicidal activity.

SMILES | inhibition of growth at 20 ppm [1] [%] | also measured
C=C(C)c1nncc(Oc2cccc(C3CC3)c2)c1C(=O)NCC(F)c1ccc(Cl)cc1Cl (centres unmarked) [Compound 2.7, 5-(3-cyclopropylphenoxy)-N-[2-(2,4-dichlorophenyl)-2-fluoro-ethyl]-3-isopropenyl-pyridazine-4-carboxamide] | ≥ 80 | –
Cc1ncc(Oc2cccc(C3CC3)c2)c(C(=O)NCCc2ccc(Cl)cc2Cl)n1 [Compound 1.1, 5-(3-cyclopropylphenoxy)-N-[2-(2,4-dichlorophenyl)ethyl]-2-methyl-pyrimidine-4-carboxamide] | ≥ 80 | –
CC(C)c1nncc(Oc2cccc(C3CC3)c2)c1C(=O)NCC(F)c1ccc(Cl)cc1Cl (centres unmarked) [Compound 2.9, 5-(3-cyclopropylphenoxy)-N-[2-(2,4-dichlorophenyl)-2-fluoro-ethyl]-3-isopropyl-pyridazine-4-carboxamide] | ≥ 80 | –
O=C(NCC(F)c1ccc(Cl)cc1Cl)c1cnncc1Oc1cccc(C2CC2)c1 (centres unmarked) [Compound 2.10, 5-(3-cyclopropylphenoxy)-N-[2-(2,4-dichlorophenyl)-2-fluoro-ethyl]pyridazine-4-carboxamide] | ≥ 80 | –
O=C(NCC(F)c1ccc(Cl)cc1Cl)c1c(Oc2cccc(C3CC3)c2)cnnc1O (centres unmarked) [Compound 2.15, 5-(3-cyclopropylphenoxy)-N-[2-(2,4-dichlorophenyl)-2-fluoro-ethyl]-3-hydroxy-pyridazine-4-carboxamide] | ≥ 80 | –
Cc1nncc(Oc2cccc(C3CC3)c2)c1C(=O)NCC(F)c1ccc(Cl)cc1Cl (centres unmarked) [Compound 2.1, 5-(3-cyclopropylphenoxy)-N-[2-(2,4-dichlorophenyl)-2-fluoro-ethyl]-3-methyl-pyridazine-4-carboxamide] | ≥ 80 | –
CC(C)Oc1nncc(Oc2cccc(C3CC3)c2)c1C(=O)NCC(F)c1ccc(Cl)cc1Cl (centres unmarked) [Compound 2.4, 5-(3-cyclopropylphenoxy)-N-[2-(2,4-dichlorophenyl)-2-fluoro-ethyl]-3-isopropoxy-pyridazine-4-carboxamide] | ≥ 80 | –
Cc1ncc(Oc2cccc(C3CC3)c2)c(C(=O)NCC(F)c2ccc(Cl)cc2Cl)n1 (centres unmarked) [Compound 1.2, 5-(3-cyclopropylphenoxy)-N-[2-(2,4-dichlorophenyl)-2-fluoro-ethyl]-2-methyl-pyrimidine-4-carboxamide] | ≥ 80 | control of Monographella nivalis [2]: at least 80%; control of Sclerotinia sclerotiorum [3]: at least 80%; control of Pyrenophora teres [4]: at least 80%; control of Alternaria solani [5]: at least 80%
O=C(NCC(F)c1ccc(Cl)cc1Cl)c1c(Oc2cccc(C3CC3)c2)cnnc1C1CC1 (centres unmarked) [Compound 2.8, 3-cyclopropyl-5-(3-cyclopropylphenoxy)-N-[2-(2,4-dichlorophenyl)-2-fluoro-ethyl]pyridazine-4-carboxamide] | ≥ 80 | –
C=C(C)COc1nncc(Oc2cccc(C3CC3)c2)c1C(=O)NCC(F)c1ccc(Cl)cc1Cl (centres unmarked) [Compound 2.5, 5-(3-cyclopropylphenoxy)-N-[2-(2,4-dichlorophenyl)-2-fluoro-ethyl]-3-(2-methylallyloxy)pyridazine-4-carboxamide] | ≥ 80 | –
CC(C)c1nncc(Oc2cccc(C3CC3)c2)c1C(=O)NC[C@H](F)c1ccc(Cl)cc1Cl [Compound 2.16, 5-(3-cyclopropylphenoxy)-N-[(2R)-2-(2,4-dichlorophenyl)-2-fluoro-ethyl]-3-isopropyl-pyridazine-4-carboxamide] | ≥ 80 | –
O=C(NCC(F)c1ccc(Cl)cc1Cl)c1c(Oc2cccc(C3CC3)c2)cnnc1C#CC1CC1 (centres unmarked) [Compound 2.6, 3-(2-cyclopropylethynyl)-5-(3-cyclopropylphenoxy)-N-[2-(2,4-dichlorophenyl)-2-fluoro-ethyl]pyridazine-4-carboxamide] | ≥ 80 | –
COc1nncc(Oc2cccc(C3CC3)c2)c1C(=O)NCCc1ccc(Cl)cc1Cl [Compound 2.12, 5-(3-cyclopropylphenoxy)-N-[2-(2,4-dichlorophenyl)ethyl]-3-methoxy-pyridazine-4-carboxamide] | ≥ 80 | –
